Data published in doi:10.1101/2024.08.19.608619, “Discovery of potent SARS-CoV-2 nsp3 macrodomain inhibitors uncovers lack of translation to cellular antiviral response” (bioRxiv, 2024).
Read-outs that look alike come from different tables or passages of the source.

Columns and labels:
Experiment in all cases: biochemical
Design in all cases: In vitro kinase panel profiling, per cent remaining kinase activity at 10 uM
CK1γ1(h) = molecular target: T1, CK1γ1(h) (Homo sapiens, UniProt Q9HCP0); settings: atp_concentration=15, read-out: % of control remaining
T1 construct: gene CSNK1G1
Description: (§1) We derisk potential for off-target activity by profiling the compound in a CEREP panel, a standard secondary pharmacology assessment, as well as a kinase panel to derisk a potential hinge-binding motif in our leads, and a PARP panel to derisk activity against human […]. Reassuringly, the compounds are selective, with the only off-targets being moderate human CHRM2 and KOR receptors activity associated with ASAP-0011198.

Fyn(h) = Fyn(h) (Homo sapiens, UniProt P06241); settings: atp_concentration=70, read-out: % of control remaining
Description: as §1

mTOR(h) = mTOR(h) (Homo sapiens, UniProt P42345); settings: atp_concentration=70, read-out: % of control remaining
Description: as §1

Lyn(h) = Lyn(h) (Homo sapiens, UniProt P07948); settings: atp_concentration=70, read-out: % of control remaining
Description: as §1

Aurora-A(h) = molecular target: T2, Aurora-A(h) (Homo sapiens, UniProt O14965); settings: atp_concentration=15, read-out: % of control remaining
T2 construct: gene AURKA
T2 sequence (O14965 1-403): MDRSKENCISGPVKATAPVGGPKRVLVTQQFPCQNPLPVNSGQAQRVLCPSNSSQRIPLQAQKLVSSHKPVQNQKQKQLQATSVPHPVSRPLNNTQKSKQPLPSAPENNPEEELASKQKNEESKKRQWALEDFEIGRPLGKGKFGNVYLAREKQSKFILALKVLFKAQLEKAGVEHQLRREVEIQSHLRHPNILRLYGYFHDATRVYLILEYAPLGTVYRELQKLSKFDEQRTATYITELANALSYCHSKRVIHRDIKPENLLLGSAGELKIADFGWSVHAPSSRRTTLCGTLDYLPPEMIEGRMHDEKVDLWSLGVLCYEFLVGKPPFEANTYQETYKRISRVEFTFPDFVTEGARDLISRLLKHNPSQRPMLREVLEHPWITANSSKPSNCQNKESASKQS
Description: as §1

LOK(h) = molecular target: T3, LOK(h) (Homo sapiens, UniProt O94804); settings: atp_concentration=120, read-out: % of control remaining
T3 construct: gene STK10
Description: as §1

CaMKI(h) = molecular target: T4, CaMKI(h) (Homo sapiens, UniProt Q14012); settings: atp_concentration=200, read-out: % of control remaining
T4 construct: gene CAMK1
Description: as §1

SAPK2a(h) = molecular target: T5, SAPK2a(h) (Homo sapiens, UniProt Q16539); settings: atp_concentration=90, read-out: % of control remaining
T5 construct: gene MAPK14
Description: as §1

IRAK4(h) = molecular target: T6, IRAK4(h) (Homo sapiens, UniProt Q9NWZ3); settings: atp_concentration=200, read-out: % of control remaining
T6 sequence (Q9NWZ3 1-460): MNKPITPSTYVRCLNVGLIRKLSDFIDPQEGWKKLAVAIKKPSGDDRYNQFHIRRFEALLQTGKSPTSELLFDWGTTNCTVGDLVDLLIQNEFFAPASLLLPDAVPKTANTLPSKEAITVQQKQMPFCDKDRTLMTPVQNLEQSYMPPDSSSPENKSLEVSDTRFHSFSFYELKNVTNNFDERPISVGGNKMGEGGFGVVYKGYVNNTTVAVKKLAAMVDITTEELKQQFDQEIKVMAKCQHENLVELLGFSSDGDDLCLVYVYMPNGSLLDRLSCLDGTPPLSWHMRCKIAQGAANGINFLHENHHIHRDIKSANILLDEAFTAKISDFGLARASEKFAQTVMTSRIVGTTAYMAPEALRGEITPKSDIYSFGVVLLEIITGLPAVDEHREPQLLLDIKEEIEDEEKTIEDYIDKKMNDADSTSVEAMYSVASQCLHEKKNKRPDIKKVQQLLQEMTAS
Description: as §1

MST1(h) = molecular target: T7, MST1(h) (Homo sapiens, UniProt Q13043); settings: atp_concentration=90, read-out: % of control remaining
T7 construct: gene STK4
T7 sequence (Q13043 1-487): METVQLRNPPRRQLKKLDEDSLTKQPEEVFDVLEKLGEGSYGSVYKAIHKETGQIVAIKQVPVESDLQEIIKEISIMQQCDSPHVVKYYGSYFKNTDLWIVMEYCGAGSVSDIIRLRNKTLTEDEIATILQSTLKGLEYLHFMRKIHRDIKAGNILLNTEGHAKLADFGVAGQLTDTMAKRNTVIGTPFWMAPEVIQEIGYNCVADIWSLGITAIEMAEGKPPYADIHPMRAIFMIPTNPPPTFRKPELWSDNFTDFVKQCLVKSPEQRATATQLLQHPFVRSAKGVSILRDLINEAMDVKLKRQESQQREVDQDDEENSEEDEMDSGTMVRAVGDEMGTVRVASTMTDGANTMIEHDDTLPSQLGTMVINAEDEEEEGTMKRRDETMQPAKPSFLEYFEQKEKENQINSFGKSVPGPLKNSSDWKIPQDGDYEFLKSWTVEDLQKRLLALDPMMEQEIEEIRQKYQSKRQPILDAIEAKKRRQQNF
Description: as §1

[1] = molecular target: T8, PI3 Kinase (p110β/p85α)(h) (Homo sapiens, UniProt P42338); settings: atp_concentration=200, read-out: % of control remaining
T8 construct: gene PIK3CB
Description: as §1

PDGFRβ(h) = molecular target: T9, PDGFRβ(h) (Homo sapiens, UniProt P09619); settings: atp_concentration=200, read-out: % of control remaining
T9 construct: gene PDGFRB
Description: as §1

T8 sequence (P42338 whole entry): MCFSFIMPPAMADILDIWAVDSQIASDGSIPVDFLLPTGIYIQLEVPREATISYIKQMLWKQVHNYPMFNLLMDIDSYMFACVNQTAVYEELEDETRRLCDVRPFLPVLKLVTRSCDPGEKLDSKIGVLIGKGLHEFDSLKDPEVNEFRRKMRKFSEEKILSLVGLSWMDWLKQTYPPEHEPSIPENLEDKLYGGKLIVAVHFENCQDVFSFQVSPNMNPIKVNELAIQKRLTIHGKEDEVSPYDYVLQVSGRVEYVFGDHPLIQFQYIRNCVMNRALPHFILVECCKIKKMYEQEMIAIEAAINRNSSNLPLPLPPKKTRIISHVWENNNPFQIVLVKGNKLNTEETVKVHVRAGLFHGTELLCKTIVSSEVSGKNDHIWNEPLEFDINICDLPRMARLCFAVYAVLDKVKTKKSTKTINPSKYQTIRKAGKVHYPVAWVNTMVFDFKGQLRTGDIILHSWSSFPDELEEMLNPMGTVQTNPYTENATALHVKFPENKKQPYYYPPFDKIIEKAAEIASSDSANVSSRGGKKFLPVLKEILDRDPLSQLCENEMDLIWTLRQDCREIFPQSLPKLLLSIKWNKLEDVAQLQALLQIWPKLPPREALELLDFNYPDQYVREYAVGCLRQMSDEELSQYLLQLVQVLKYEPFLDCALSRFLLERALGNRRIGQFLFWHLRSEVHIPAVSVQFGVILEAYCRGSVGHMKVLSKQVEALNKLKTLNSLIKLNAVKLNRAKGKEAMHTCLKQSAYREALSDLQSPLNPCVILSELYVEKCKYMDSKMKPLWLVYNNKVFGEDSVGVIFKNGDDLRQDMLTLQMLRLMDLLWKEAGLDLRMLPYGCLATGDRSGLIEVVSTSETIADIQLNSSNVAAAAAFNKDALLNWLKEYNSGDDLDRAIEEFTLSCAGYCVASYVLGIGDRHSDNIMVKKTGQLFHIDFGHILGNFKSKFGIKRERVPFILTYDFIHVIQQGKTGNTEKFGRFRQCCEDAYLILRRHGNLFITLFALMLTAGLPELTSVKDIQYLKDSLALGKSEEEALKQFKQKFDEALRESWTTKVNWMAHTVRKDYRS
T8 sequence (P27986 whole entry partner): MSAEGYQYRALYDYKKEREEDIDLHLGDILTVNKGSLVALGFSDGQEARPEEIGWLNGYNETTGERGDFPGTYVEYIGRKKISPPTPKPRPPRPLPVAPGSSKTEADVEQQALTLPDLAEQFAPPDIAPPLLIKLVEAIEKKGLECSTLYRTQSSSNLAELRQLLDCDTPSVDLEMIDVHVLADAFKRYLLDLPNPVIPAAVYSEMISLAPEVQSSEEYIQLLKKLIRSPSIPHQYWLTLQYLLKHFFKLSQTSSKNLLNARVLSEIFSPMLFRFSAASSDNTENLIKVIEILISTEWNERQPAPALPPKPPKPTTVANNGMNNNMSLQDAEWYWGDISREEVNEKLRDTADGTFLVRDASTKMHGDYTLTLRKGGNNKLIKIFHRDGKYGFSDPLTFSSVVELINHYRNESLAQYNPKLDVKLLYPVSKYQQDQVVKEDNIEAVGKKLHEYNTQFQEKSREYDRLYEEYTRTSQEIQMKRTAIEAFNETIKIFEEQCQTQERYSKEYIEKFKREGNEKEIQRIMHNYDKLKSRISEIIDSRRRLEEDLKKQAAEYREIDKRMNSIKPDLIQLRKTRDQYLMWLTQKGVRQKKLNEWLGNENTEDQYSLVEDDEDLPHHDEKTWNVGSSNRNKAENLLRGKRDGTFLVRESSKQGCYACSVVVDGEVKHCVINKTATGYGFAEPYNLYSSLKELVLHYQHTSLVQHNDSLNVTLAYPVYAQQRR
T5 sequence (Q16539 whole entry): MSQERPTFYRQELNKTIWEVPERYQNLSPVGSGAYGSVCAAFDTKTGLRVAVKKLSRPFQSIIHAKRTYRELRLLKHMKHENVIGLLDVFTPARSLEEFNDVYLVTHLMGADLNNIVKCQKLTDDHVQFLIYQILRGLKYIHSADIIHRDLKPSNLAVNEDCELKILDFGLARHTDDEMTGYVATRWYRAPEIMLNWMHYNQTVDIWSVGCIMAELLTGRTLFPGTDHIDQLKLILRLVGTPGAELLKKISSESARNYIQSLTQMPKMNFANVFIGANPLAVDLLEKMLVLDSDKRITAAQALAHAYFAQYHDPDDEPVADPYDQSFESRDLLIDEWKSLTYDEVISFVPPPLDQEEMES
Fyn(h), sequence (P06241 whole entry): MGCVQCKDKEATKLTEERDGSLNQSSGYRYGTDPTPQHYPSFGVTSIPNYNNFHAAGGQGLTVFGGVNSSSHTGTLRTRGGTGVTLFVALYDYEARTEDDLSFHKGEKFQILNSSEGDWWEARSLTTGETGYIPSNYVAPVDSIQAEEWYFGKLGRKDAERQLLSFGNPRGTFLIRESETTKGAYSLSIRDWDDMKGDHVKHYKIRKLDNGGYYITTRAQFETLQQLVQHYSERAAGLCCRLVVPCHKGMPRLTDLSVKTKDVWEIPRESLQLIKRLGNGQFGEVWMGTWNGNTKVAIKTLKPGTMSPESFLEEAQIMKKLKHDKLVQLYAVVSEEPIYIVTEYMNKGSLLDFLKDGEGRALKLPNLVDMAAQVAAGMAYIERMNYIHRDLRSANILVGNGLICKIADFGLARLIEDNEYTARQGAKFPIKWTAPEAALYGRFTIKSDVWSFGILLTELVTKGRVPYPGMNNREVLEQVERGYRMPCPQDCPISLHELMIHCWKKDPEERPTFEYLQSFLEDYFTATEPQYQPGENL
Lyn(h), sequence (P07948 whole entry): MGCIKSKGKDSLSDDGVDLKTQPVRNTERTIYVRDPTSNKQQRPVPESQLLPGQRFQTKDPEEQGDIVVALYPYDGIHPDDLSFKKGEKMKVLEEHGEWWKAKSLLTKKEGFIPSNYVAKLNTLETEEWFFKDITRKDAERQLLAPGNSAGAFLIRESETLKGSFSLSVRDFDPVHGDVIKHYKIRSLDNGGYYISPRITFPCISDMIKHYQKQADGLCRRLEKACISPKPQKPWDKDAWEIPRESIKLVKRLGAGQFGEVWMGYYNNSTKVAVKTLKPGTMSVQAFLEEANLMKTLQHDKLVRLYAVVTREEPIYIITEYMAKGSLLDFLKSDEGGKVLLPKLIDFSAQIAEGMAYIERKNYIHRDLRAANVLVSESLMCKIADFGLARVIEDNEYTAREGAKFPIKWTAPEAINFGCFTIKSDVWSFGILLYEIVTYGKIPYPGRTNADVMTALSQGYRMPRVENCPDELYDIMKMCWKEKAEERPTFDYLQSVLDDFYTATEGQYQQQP
T3 sequence (O94804 whole entry): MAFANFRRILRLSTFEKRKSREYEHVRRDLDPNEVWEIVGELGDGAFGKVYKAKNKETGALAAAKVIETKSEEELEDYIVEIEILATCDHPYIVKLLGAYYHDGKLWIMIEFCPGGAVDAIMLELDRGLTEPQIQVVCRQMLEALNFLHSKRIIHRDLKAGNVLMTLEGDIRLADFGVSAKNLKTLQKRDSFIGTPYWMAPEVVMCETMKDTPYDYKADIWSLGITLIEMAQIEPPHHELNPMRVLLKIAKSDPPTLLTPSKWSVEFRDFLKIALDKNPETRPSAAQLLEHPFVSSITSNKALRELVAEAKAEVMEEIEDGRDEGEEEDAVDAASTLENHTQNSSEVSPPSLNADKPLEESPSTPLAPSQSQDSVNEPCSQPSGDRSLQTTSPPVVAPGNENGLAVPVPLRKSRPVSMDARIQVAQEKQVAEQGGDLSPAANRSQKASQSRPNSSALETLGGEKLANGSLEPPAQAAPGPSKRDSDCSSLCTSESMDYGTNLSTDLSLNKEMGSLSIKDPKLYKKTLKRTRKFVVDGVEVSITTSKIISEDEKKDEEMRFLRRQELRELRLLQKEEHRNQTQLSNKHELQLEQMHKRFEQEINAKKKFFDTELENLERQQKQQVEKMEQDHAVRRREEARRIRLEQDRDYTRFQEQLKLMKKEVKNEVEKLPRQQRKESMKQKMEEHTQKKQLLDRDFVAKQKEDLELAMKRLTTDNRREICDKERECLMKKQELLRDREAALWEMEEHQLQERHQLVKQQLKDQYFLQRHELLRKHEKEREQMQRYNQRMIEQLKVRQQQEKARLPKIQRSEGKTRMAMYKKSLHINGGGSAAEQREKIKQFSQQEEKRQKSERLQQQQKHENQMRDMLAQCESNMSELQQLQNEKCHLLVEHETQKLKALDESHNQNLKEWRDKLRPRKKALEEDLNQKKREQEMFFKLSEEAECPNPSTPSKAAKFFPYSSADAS
T1 sequence (Q9HCP0 whole entry): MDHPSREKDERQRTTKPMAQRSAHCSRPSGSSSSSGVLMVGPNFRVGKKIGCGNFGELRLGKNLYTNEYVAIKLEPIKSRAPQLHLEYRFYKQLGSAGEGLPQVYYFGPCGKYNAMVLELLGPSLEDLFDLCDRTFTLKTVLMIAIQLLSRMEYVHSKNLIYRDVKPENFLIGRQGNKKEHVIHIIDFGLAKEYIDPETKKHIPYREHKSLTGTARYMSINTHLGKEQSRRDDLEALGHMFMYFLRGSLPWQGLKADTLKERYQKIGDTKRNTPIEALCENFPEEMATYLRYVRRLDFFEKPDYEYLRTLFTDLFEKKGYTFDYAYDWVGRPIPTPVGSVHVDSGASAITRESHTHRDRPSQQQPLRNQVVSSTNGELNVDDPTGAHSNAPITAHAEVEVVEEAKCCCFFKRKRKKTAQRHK
T4 sequence (Q14012 whole entry): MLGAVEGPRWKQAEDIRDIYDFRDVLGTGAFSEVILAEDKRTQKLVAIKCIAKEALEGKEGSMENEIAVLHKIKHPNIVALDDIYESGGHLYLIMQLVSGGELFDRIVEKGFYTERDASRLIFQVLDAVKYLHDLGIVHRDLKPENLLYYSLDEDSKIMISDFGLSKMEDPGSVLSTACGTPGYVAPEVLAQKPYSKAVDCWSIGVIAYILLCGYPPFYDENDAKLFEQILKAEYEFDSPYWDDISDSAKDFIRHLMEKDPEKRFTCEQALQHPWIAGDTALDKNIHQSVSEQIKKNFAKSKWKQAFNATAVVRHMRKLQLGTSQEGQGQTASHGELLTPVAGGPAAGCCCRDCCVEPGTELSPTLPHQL

CC(C)C(Nc1ncnc2[nH]c(C(=O)NC3CCN(C)C3)cc12)c1ccc2c(c1)S(=O)(=O)CCC2 (stereo not drawn) [ASAP-0011198]
remaining activity at 10 µM (CK1γ1(h); batch_name=ASAP-0011198-002): 100% | remaining activity at 10 µM (Fyn(h); batch_name=ASAP-0011198-002): 107% | remaining activity at 10 µM (mTOR(h); batch_name=ASAP-0011198-002): 103% | remaining activity at 10 µM (Lyn(h); batch_name=ASAP-0011198-002): 107% | remaining activity at 10 µM (Aurora-A(h); batch_name=ASAP-0011198-002): 97% | remaining activity at 10 µM (LOK(h); batch_name=ASAP-0011198-002): 99% | remaining activity at 10 µM (CaMKI(h); batch_name=ASAP-0011198-002): 100% | remaining activity at 10 µM (SAPK2a(h); batch_name=ASAP-0011198-002): 97% | remaining activity at 10 µM (IRAK4(h); batch_name=ASAP-0011198-002): 105% | remaining activity at 10 µM (MST1(h); batch_name=ASAP-0011198-002): 122% | remaining activity at 10 µM ([1]; batch_name=ASAP-0011198-002): 99% | remaining activity at 10 µM (PDGFRβ(h); batch_name=ASAP-0011198-002): 83%

Cn1ncc(-c2cc3c(N[C@@H](c4ccc5c(n4)OCCO5)C(C)(C)C)ncnc3[nH]2)c1C#N [ASAP-0011221]
remaining activity at 10 µM (CK1γ1(h); batch_name=ASAP-0011221-002): 94% | remaining activity at 10 µM (Fyn(h); batch_name=ASAP-0011221-002): 82% | remaining activity at 10 µM (mTOR(h); batch_name=ASAP-0011221-002): 105% | remaining activity at 10 µM (Lyn(h); batch_name=ASAP-0011221-002): 101% | remaining activity at 10 µM (Aurora-A(h); batch_name=ASAP-0011221-002): 95% | remaining activity at 10 µM (LOK(h); batch_name=ASAP-0011221-002): 122% | remaining activity at 10 µM (CaMKI(h); batch_name=ASAP-0011221-002): 87% | remaining activity at 10 µM (SAPK2a(h); batch_name=ASAP-0011221-002): 106% | remaining activity at 10 µM (IRAK4(h); batch_name=ASAP-0011221-002): 132% | remaining activity at 10 µM (MST1(h); batch_name=ASAP-0011221-002): 115% | remaining activity at 10 µM ([1]; batch_name=ASAP-0011221-002): 91% | remaining activity at 10 µM (PDGFRβ(h); batch_name=ASAP-0011221-002): 100%

Cc1nn(C)cc1-c1cc2c(NC(c3ccc4c(c3)S(=O)(=O)CCC4)C(C)C)ncnc2[nH]1 (stereo not drawn) [ASAP-0011446]
remaining activity at 10 µM (CK1γ1(h); batch_name=ASAP-0011446-002): 99% | remaining activity at 10 µM (Fyn(h); batch_name=ASAP-0011446-002): 32% | remaining activity at 10 µM (mTOR(h); batch_name=ASAP-0011446-002): 96% | remaining activity at 10 µM (Lyn(h); batch_name=ASAP-0011446-002): 48% | remaining activity at 10 µM (Aurora-A(h); batch_name=ASAP-0011446-002): 55% | remaining activity at 10 µM (LOK(h); batch_name=ASAP-0011446-002): 93% | remaining activity at 10 µM (CaMKI(h); batch_name=ASAP-0011446-002): 101% | remaining activity at 10 µM (SAPK2a(h); batch_name=ASAP-0011446-002): 98% | remaining activity at 10 µM (IRAK4(h); batch_name=ASAP-0011446-002): 107% | remaining activity at 10 µM (MST1(h); batch_name=ASAP-0011446-002): 115% | remaining activity at 10 µM ([1]; batch_name=ASAP-0011446-002): 105% | remaining activity at 10 µM (PDGFRβ(h); batch_name=ASAP-0011446-002): 97%

C[C@H](C(=O)O)[C@@H](NC(=O)c1ncnc2[nH]ccc12)c1ccc(Br)cc1 [ASAP-0014722]
remaining activity at 10 µM (CK1γ1(h); batch_name=ASAP-0014722-002): 92% | remaining activity at 10 µM (Fyn(h); batch_name=ASAP-0014722-002): 98% | remaining activity at 10 µM (mTOR(h); batch_name=ASAP-0014722-002): 100% | remaining activity at 10 µM (Lyn(h); batch_name=ASAP-0014722-002): 94% | remaining activity at 10 µM (Aurora-A(h); batch_name=ASAP-0014722-002): 72% | remaining activity at 10 µM (LOK(h); batch_name=ASAP-0014722-002): 97% | remaining activity at 10 µM (CaMKI(h); batch_name=ASAP-0014722-002): 101% | remaining activity at 10 µM (SAPK2a(h); batch_name=ASAP-0014722-002): 103% | remaining activity at 10 µM (IRAK4(h); batch_name=ASAP-0014722-002): 106% | remaining activity at 10 µM (MST1(h); batch_name=ASAP-0014722-002): 121% | remaining activity at 10 µM ([1]; batch_name=ASAP-0014722-002): 97% | remaining activity at 10 µM (PDGFRβ(h); batch_name=ASAP-0014722-002): 110%

COc1ccc([C@H](Cc2nnn[nH]2)NC(=O)c2ncnc3[nH]ccc23)cc1 [ASAP-0015381]
remaining activity at 10 µM (CK1γ1(h); batch_name=ASAP-0015381-001): 94% | remaining activity at 10 µM (Fyn(h); batch_name=ASAP-0015381-001): 102% | remaining activity at 10 µM (mTOR(h); batch_name=ASAP-0015381-001): 97% | remaining activity at 10 µM (Lyn(h); batch_name=ASAP-0015381-001): 108% | remaining activity at 10 µM (Aurora-A(h); batch_name=ASAP-0015381-001): 84% | remaining activity at 10 µM (LOK(h); batch_name=ASAP-0015381-001): 102% | remaining activity at 10 µM (CaMKI(h); batch_name=ASAP-0015381-001): 103% | remaining activity at 10 µM (SAPK2a(h); batch_name=ASAP-0015381-001): 103% | remaining activity at 10 µM (IRAK4(h); batch_name=ASAP-0015381-001): 109% | remaining activity at 10 µM (MST1(h); batch_name=ASAP-0015381-001): 127% | remaining activity at 10 µM ([1]; batch_name=ASAP-0015381-001): 97% | remaining activity at 10 µM (PDGFRβ(h); batch_name=ASAP-0015381-001): 103%
